Measured values: US9169247B2, “Tetrahydro-beta-carboline derivatives, synthesis and use thereof” (Southern Research Institute, priority 2009, dated 2015)
Like-named read-outs stand apart in the source and are kept apart here.

Assays:
HT-29 = assay: Growth assay (Cell Titer Glo); type: cell-based, human; details: HT-29 colon
Procedure: (§1) Compounds 2a-h were tested for tumor cell growth inhibitory activity using the human breast MDA-MB-231 and ZR75-1 tumor cell lines and the colon CACO-2, SW-1116, and HT-29 tumor cell lines.
(§2) All human tumor cell lines were obtained from ATCC and grown under standard cell culture conditions at 37° C. in a humidified atmosphere with 5% CO2. Cells were grown in RPMI 1640 supplemented with 5% fetal bovine serum 2 mM glutamine, 100 units/ml penicillin, 100 units/ml streptomycin, and 0.25 μg/ml amphotericin. Cells were harvested at 70 to 90% confluence with trypsin/EDTA and used immediately Cell count and viability was determined by Trypan blue staining followed by hemocytometry. Only cultures displaying >95% cell viability were used for experiments. HMEC were grown according to the specifications from the supplier (Lonzo).
(§3) Tissue culture microtiter 96-well plates were seeded with cells at a density of 5,000 cells/well. The plates were incubated for 18-24 hours prior to any treatment. All test compounds were solubilized in 100% DMSO and diluted with media to obtain a final DMSO concentration of 0.1%. Cell viability was measured 72 hours after treatment by the Cell Titer Glo Assay (Promega), which is a luminescent assay that is an indicator of live cells as a function of metabolic activity and ATP content. The assay was performed according to manufacturer's specifications. Luminescence was measured by a Perkin Elmer Victor® multi-label plate reader.^6
(§4) Dose response curves were analyzed using Prism™ 4 software (GraphPad) to calculate IC50 values using a four parameter logistic equation.

[1] = system: human MDA-MB-231 breast tumor cells; assay: Growth assay (Cell Titer Glo); type: cell-based; details: for inhibition at 10 µM / % Growth Inhibition at 10 μM: mean +/− spread
Procedure: as §2, §3, §4

ZR75-1 = assay: Growth assay (Cell Titer Glo); type: cell-based; details: Homo sapiens, ZR-75-1; ZR75-1 breast; 72 h
Procedure: as §1, §2, §3, §4

CACO-2 = assay: Growth assay (Cell Titer Glo); type: cell-based; details: Homo sapiens; CACO-2 colon; 72 h
Procedure: as §1, §2, §3, §4

SW1116 = assay: Growth assay (Cell Titer Glo); type: cell-based; details: Homo sapiens, SW 1116; SW1116 colon; 72 h
Procedure: as §1, §2, §3, §4

[2] = Homo sapiens, MDA-MB-231, 72 h, MDA-MB-231 breast, 72 h, Tables 3-5, read-out: IC50 value, μM, growth
[3] = Homo sapiens, MDA-MB-231, MDA-MB-231
[4] = Homo sapiens, MDA-MB-231, MDA-MB-231, Tables 1 and 2, read-out: Growth Inhibition IC50, μM (95% CI)
[5] = MDA-MB-231, Tables 1 and 2, read-out: Growth Inhibition IC50, μM (95% CI)
[6] = MDA-MB-231 breast, 72 h, Tables 3-5, read-out: IC50 value, μM, growth

Row | Structure (SMILES) | melting point | IC50 [1, 2] | inhibition at 10 µM [1, 3] | other results
1 | COC(=O)[C@H]1Cc2c([nH]c3ccccc23)[C@H](c2ccc(Cl)c(Cl)c2)N1 [Compound 1n, (1S,3R) Methyl-1-(3,4-dichlorophenyl)-2,3,4,9-tetrahydro-1H-β-carboline-3-carboxylate] | 140 to 143 °C |  | 100% | IC50 [1, 4]: 4.62 µM
2 | COC(=O)[C@@H]1Cc2c([nH]c3ccccc23)[C@H](c2ccc(Cl)cc2Cl)N1 [Compound 1k, (1S,3S)Methyl 1-(2,4-dichlorophenyl)-2,3,4,9-tetrahydro-1H-β-carboline-3-carboxylate] | 90 to 92 °C |  | 50% | 
3 | COC(=O)[C@H]1Cc2c([nH]c3ccccc23)[C@@H](c2cc(OC)ccc2OC)N1 [Compound 1e, (1R,3R) Methyl 1-(2,5-dimethoxyphenyl)-2,3,4,9-tetrahydro-1H-β-carboline-3-carboxylate] | 102 to 105 °C |  |  | 
4 | COC(=O)[C@@H]1Cc2c([nH]c3ccccc23)[C@@H](c2ccc(Cl)c(Cl)c2)N1 [Compound 1p, (1R,3S)Methyl-1-(3,4-dichlorophenyl)-2,3,4,9-tetrahydro-1H-β-carboline-3-carboxylate] | 139 to 142 °C |  | 48% | 
5 | COC(=O)[C@H]1Cc2c([nH]c3ccccc23)[C@@H](c2ccc(Cl)c(Cl)c2)N1 [Compound 1m, (1R,3R) Methyl-1-(3,4-dichlorophenyl)-2,3,4,9-tetrahydro-1H-β-carboline-3-carboxylate] | 90 to 92 °C |  | 43% | 
6 | COC(=O)[C@@H]1Cc2c([nH]c3ccccc23)[C@@H](c2cc(OC)ccc2OC)N1 [Compound 1h, (1R,3S) Methyl 1-(2,5-dimethoxyphenyl)-2,3,4,9-tetrahydro-1H-β-carboline-3-carboxylate] | 138 to 141 °C |  |  | 
7 | COC(=O)[C@@H]1Cc2c([nH]c3ccccc23)[C@H](c2cc(OC)ccc2OC)N1 [Compound 1g, (1S,3S) Methyl 1-(2,5-dimethoxyphenyl)-2,3,4,9-tetrahydro-1H-β-carboline-3-carboxylate] | 100 to 102 °C |  |  | 
8 | COC(=O)[C@H]1Cc2c([nH]c3ccccc23)[C@@H](c2c(Cl)cccc2Cl)N1 [Compound 1q, (1R,3R) Methyl 1-(2,6-dichlorophenyl)-2,3,4,9-tetrahydro-1H-β-carboline-3 carboxylate] | 102 to 105 °C |  |  | 
9 | COC(=O)[C@@H]1Cc2c([nH]c3ccccc23)[C@H](c2c(Cl)cccc2Cl)N1 [Compound 1r, (1S,3S) Methyl 1-(2,6-dichlorophenyl)-2,3,4,9-tetrahydro-1H-β-carboline-3-carboxylate] | 101 to 103 °C |  | 52% | 
10 | COC(=O)[C@H]1Cc2c([nH]c3ccccc23)[C@H](c2ccc(Cl)cc2Cl)N1 [Compound 1j, (1S,3R) Methyl 1-(2,4-dichlorophenyl)-2,3,4,9-tetrahydro-1H-β-carboline-3-carboxylate] | 130 to 133 °C |  | 78% | IC50 [1, 4]: 6.73 µM
11 | COC(=O)[C@H]1Cc2c([nH]c3ccccc23)[C@H](c2cc(OC)ccc2OC)N1 [Compound 1f, (1S,3R) Methyl 1-(2,5-dimethoxyphenyl)-2,3,4,9-tetrahydro-1H-β-carboline-3-carboxylate] | 139 to 142 °C |  |  | 
12 | COC(=O)[C@@H]1Cc2c([nH]c3ccccc23)[C@@H](c2ccc(Cl)cc2Cl)N1 [Compound 1l, (1R,3S)Methyl 1-(2,4-dichlorophenyl)-2,3,4,9-tetrahydro-1H-β-carboline-3-carboxylate] | 128 to 130 °C |  | 28% | 
13 | COC(=O)[C@@H]1Cc2c([nH]c3ccccc23)[C@H](c2ccc(Cl)c(Cl)c2)N1 [Compound 1o, (1S,3S) Methyl-1-(3,4-dichlorophenyl)-2,3,4,9-tetrahydro-1H-β-carboline-3-carboxylate] | 88 to 91 °C |  | 62% | IC50 [1, 4]: 6.98 µM
14 | COC(=O)[C@H]1Cc2c([nH]c3ccccc23)[C@@H](c2ccc(Cl)cc2Cl)N1 [Compound 1i, (1R,3R) Methyl-1-(2,4-dichlorophenyl)-2,3,4,9-tetrahydro-1H-β-carboline-3-carboxylate] | 88 to 92 °C |  | 29% | 

Further lines, with some results ahead:

Row | melting point | IC50 [1, 2] | Structure (SMILES) | inhibition at 10 µM [1, 3] | other results
15 | 163 to 165 °C | 1.2 µM | COC(=O)[C@H]1Cc2c([nH]c3ccccc23)[C@H](c2ccc(Cl)c(Cl)c2)N1C(=O)CCl [Compound 2n, (1S,3R) Methyl 1-(3,4dichlorophenyl)-2-(2-chloroacetyl)-2,3,4,9-tetrahydro-1H-β-carboline-3-carboxylate] | 50% | IC50 (HT-29; Homo sapiens, HT-29, 72 h): > 10 µM
16 | 283 to 285 °C | > 10 µM | COC(=O)[C@H]1Cc2c([nH]c3ccccc23)[C@@H](c2ccc(Cl)c(Cl)c2)N1C(=O)CCl [Compound 2m, (1R,3R) Methyl 1-(3,4-dichlorophenyl)-2-(2-chloroacetyl)-2,3,4,9-tetrahydro-1H-β-carboline-3-carboxylate] |  | 
17 |  | 0.02 µM | COC(=O)[C@H]1Cc2c([nH]c3ccccc23)[C@H](c2ccccc2Br)N1C(=O)CCl [Compound 2b, Methyl (1S,3R)-1-(2-bromophenyl)-2-(2-chloroacetyl)-2,3,4,9-tetrahydro-1H-β-carboline-3-carboxylate] |  | IC50 (HT-29; Homo sapiens, HT-29, 72 h): 1.16 µM; IC50 (ZR75-1): 1.1 µM; IC50 (CACO-2): 1.6 µM; IC50 (SW1116): 4.3 µM
18 | 162 to 165 °C | > 10 µM | COC(=O)[C@@H]1Cc2c([nH]c3ccccc23)[C@@H](c2ccc(Cl)c(Cl)c2)N1C(=O)CCl [Compound 2p, (1R,3S) Methyl 1-(3,4-dichloro-phenyl)-2 (2-chloroacetyl)-2,3,4,9-tetrahydro-1H-β-carboline-3-carboxylate] | 55% | IC50 (HT-29; Homo sapiens, HT-29, 72 h): > 10 µM
19 | 215 to 218 °C | 0.56 µM | COC(=O)[C@H]1Cc2c([nH]c3ccccc23)[C@@H](c2ccc(Cl)cc2Cl)N1C(=O)CCl [Compound 2i, (1R,3R) Methyl 1-(2,4-dichlorophenyl)-2-(2-chloroacetyl)-2,3,4,9-tetrahydro-1H-β-carboline-3-carboxylate] | 98% | IC50 [1, 4]: 0.56 µM
20 | 283 to 284 °C | > 10 µM | COC(=O)[C@@H]1Cc2c([nH]c3ccccc23)[C@H](c2ccc(Cl)c(Cl)c2)N1C(=O)CCl [Compound 2o, (1S,3S) Methyl 1-(3,4-dichlorophenyl)-2-(2-chloroacetyl)-2,3,4,9-tetrahydro-1H-β-carboline-3-carboxylate] | 43% | 
21 | 215 to 218 °C | 0.38 µM | COC(=O)[C@@H]1Cc2c([nH]c3ccccc23)[C@H](c2ccc(Cl)cc2Cl)N1C(=O)CCl [Compound 2k, (1S,3S) Methyl 1-(2,4dichlorophenyl)-2-(2-chloroacetyl)-2,3,4,9-tetrahydro-1H-β-carboline-3-carboxylate] | 55% | 
22 | 153 to 156 °C |  | COC(=O)C1Cc2c([nH]c3ccccc23)C(c2c(Cl)cccc2Cl)N1C(=O)CCl [Compound 2r, (1S,3S) Methyl 1-(2,6-dichlorophenyl)-2-(2-chloroacetyl)-2,3,4,9-tetrahydro-1H-β-carboline-3-carboxyl] |  | IC50 (HT-29; 72 h): 1 µM; % Growth Inhibition at 10 μM ([1]; MDA-MB-231): 24 +/− 0.54%; IC50 [1, 5]: 0.42 µM; IC50 [1, 6]: 0.44 µM
23 | 147 to 150 °C |  | COC(=O)C1Cc2c([nH]c3ccccc23)C(c2c(Cl)cccc2Cl)N1C(=O)CCl [Compound 2q, (1R,3R) Methyl 1-(2,6-dichlorophenyl)-2-(2-chloroacetyl)-2,3,4,9-tetrahydro 1H-β-carboline-3-carboxylate] |  | IC50 (HT-29; Homo sapiens, HT-29, 72 h): 1.5 µM; % Growth Inhibition at 10 μM ([1]; MDA-MB-231): 99 +/− 0.01%; IC50 [1, 5]: 0.05 µM; IC50 [1, 6]: 0.04 µM
24 | 109 to 112 °C | 1.24 µM | COC(=O)[C@@H]1Cc2c([nH]c3ccccc23)[C@@H](c2ccc(Cl)cc2Cl)N1C(=O)CCl [Compound 2l, (1R,3S) Methyl 1-(2,4-dichlorophenyl)-2-(2-chloroacetyl)-2,3,4,9-tetrahydro-1H-β-carboline-3-carboxylate] | 98% | IC50 [1, 4]: 1.24 µM
